Results as given in patent US20060057236A1, “Process for producing an extract of ivy leaves” (priority 2003, published 2006).

Tests used:
β-adrenergic receptors = assay: inhibition of internalization of β-adrenergic receptors (receptor/ligand complex) into the cell; assay type: cell-based; conditions: studies carried out by the applicant; result in words
β-adrenergic receptor = assay: direct action on the β-adrenergic receptor; conditions: studies carried out by the applicant; result in words

SMILES | inhibition of the process of internalizing β-adrenergic receptors (β-adrenergic receptors) | direct attack on the β-adrenergic receptor (β-adrenergic receptor)
C[C@@H]1O[C@@H](O[C@H]2[C@H](O[C@H]3CC[C@@]4(C)[C@@H](CC[C@]5(C)[C@@H]4CC=C4[C@@H]6CC(C)(C)CC[C@]6(C(=O)O[C@@H]6O[C@H](CO[C@@H]7O[C@H](CO)[C@@H](O[C@@H]8O[C@@H](C)[C@H](O)[C@@H](O)[C@H]8O)[C@H](O)[C@H]7O)[C@@H](O)[C@H](O)[C@H]6O)CC[C@]45C)[C@]3(C)CO)OC[C@H](O)[C@@H]2O)[C@H](O)[C@H](O)[C@H]1O [hederacoside C] | unable to inhibit the process of internalization | 
CC1(C)CC[C@]2(C(=O)O)CC[C@]3(C)C(=CC[C@@H]4[C@@]5(C)CC[C@H](O)[C@@](C)(CO)[C@@H]5CC[C@]43C)[C@@H]2C1 [hederagenin] | unable to inhibit the process of internalization | 
C[C@@H]1O[C@@H](O[C@H]2[C@H](O[C@H]3CC[C@@]4(C)[C@@H](CC[C@]5(C)[C@@H]4CC=C4[C@@H]6CC(C)(C)CC[C@]6(C(=O)O)CC[C@]45C)[C@]3(C)CO)OC[C@H](O)[C@@H]2O)[C@H](O)[C@H](O)[C@H]1O [α-hederin] | inhibits the process of internalizing β-adrenergic receptors in a specific manner | does not attack the β-adrenergic receptor directly
